Measurements taken from ChEMBL document CHEMBL1145509, “Defining the molecular forces that determine the impact of neomycin on bacterial protein synthesis: importance of the 2'-amino functionality” (Antimicrob Agents Chemother, 2007).
≈ marks a conversion by molar mass, not a printed value.

How the values were obtained:
[1] = tested on: Escherichia coli; experiment: Binding affinity to Escherichia coli 16S rRNA A-site model at Ec2AP1492 position assessed as shorter rotational correlation time by time resolved fluorescence anisotropy
[2] = tested on: Escherichia coli; experiment: Antibacterial activity against Escherichia coli DH5-alpha after 24 hrs by broth dilution assay; assay type: functional; settings: DH5alpha
[3] = tested on: Escherichia coli; experiment: Binding affinity to Escherichia coli 16S rRNA A-site model at Ec2AP1492 position assessed as two rotational correlation time by time resolved fluorescence anisotropy
[4] = tested on: Escherichia coli; experiment: Binding affinity to Escherichia coli 16S rRNA A-site model at Ec2AP1493 position assessed as two rotational correlation time by time resolved fluorescence anisotropy
[5] = tested on: Escherichia coli; experiment: Binding affinity to Escherichia coli 16S rRNA A-site model at Ec2AP1493 position assessed as shorter rotational correlation time by time resolved fluorescence anisotropy
[6] = tested on: Escherichia coli; experiment: Antitranslation activity in Escherichia coli extract rRNA S30 assessed as inhibition of luciferase expression by transcription-translation assay; assay type: functional

Row | Activity [1] [nanoseconds] | MIC [2] [µg/mL] | Activity [3] [nanoseconds] | Activity [4] [nanoseconds] | Activity [5] [nanoseconds] | IC50 [6] [nM] | Compound
1 | 0.76 | 119 (≈ 199 µM) | 4.38 | 3.95 | 0.65 | 1100 | NC[C@@H]1O[C@H](O[C@@H]2[C@@H](O)[C@@H]3OC4[C@@H](O)[C@H](N)C[C@H](N)[C@H]4O[C@H]4O[C@H](CN)[C@@H](O)[C@H](O)[C@H]4NC[C@H]2O3)[C@H](N)[C@@H](O)[C@@H]1O (some centres not stated)
2 | 2.35 | 1.9 (≈ 3.09 µM) | 7.32 | 5.32 | 1.96 | 50 | NC[C@@H]1O[C@H](O[C@@H]2[C@@H](O)[C@H](O[C@@H]3[C@@H](O)[C@H](N)C[C@H](N)[C@@H]3O[C@H]3O[C@H](CN)[C@@H](O)[C@H](O)[C@H]3N)O[C@@H]2CO)[C@H](N)[C@@H](O)[C@@H]1O
